Reference: PubChem BioAssay (NCI)
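Protocol summary: plate cells (96-well), add compound at 5 concentrations, incubate 48 h, interpolate endpoints linearly. GI50 is the concentration that inhibits growth by half. At the TGI there is no net growth.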

Columns and labels:
Assay in all cases: growth of human tumour cells (NCI), 48 h
BT-549 breast = test system: BT-549 breast
A498 renal = test system: A498 renal
NCI-H522 lung = test system: NCI-H522 lung
RXF 393 renal = test system: RXF 393 renal
HCT-116 colon = test system: HCT-116 colon
COLO 205 colon = test system: COLO 205 colon
A549 NSCLC = test system: A549 NSCLC
SF-268 CNS = test system: SF-268 CNS
T-47D breast = test system: T-47D breast
SK-MEL-28 melanoma = test system: SK-MEL-28 melanoma

Structure (SMILES)	GI50 (BT-549 breast) [µM]	TGI (BT-549 breast) [µM]	GI50 (A498 renal) [µM]	TGI (A498 renal) [µM]	GI50 (NCI-H522 lung) [µM]	TGI (NCI-H522 lung) [µM]	GI50 (RXF 393 renal) [µM]	TGI (RXF 393 renal) [µM]	GI50 (HCT-116 colon) [µM]	TGI (HCT-116 colon) [µM]	GI50 (COLO 205 colon) [µM]	TGI (COLO 205 colon) [µM]	GI50 (A549 NSCLC) [µM]	TGI (A549 NSCLC) [µM]	GI50 (SF-268 CNS) [µM]	TGI (SF-268 CNS) [µM]	GI50 (T-47D breast) [µM]	TGI (T-47D breast) [µM]	GI50 (SK-MEL-28 melanoma) [µM]	TGI (SK-MEL-28 melanoma) [µM]
C=C(C)[C@@H]1CC[C@]2(COCCC#N)CC[C@]3(C)[C@H](CC[C@@H]4[C@@](C)(CCCNCCC#N)[C@H](C(=C)C)CC[C@]43C)[C@@H]12	24.3	> 50	> 50	> 50	8.55	23.4	7.44	14.5	7.25	13.8	14.6	> 50	34.4	> 50	23.5	> 50	8.71	> 50	9.26	18
COC1=CC(c2ccc[nH]2)=N/C1=C\c1[nH]c(C)c(CC(=O)OCc2ccccc2)c1CCC(=O)OCc1ccccc1	0.37	2.68	0.288	2.42	0.302	1.85	0.423	2.19	0.233	1.04	0.26	1.2	0.427	10.9	0.464	–	0.256	0.922	–	–
CCOC(=O)c1ccccc1OC(=O)NNc1ccccc1	3.56	> 100	> 68	> 100	1.67	> 100	> 100	> 100	1.69	> 100	2.45	> 100	0.874	> 100	12.1	> 100	0.892	> 100	> 59.6	> 100
CCOC(=O)c1ccc2c(c1)Cc1cc([N+](=O)[O-])ccc1-2	–	94.2	–	> 100	–	–	–	55.5	–	> 100	–	78.6	–	> 100	–	88	–	> 100	–	> 100
CCCCCCCC/C=C/CCCCCCCC1=NC(C)(C)CN1CC(C)O (stereo not drawn)	2.84	15.7	0.935	17	1.92	4.33	1.53	3.39	1.84	3.32	1.76	3.45	1.8	3.42	1.73	3.16	2.03	4.58	1.74	3.19
COc1c(O)c(OC)c2oc(-c3ccc(O)c(O)c3)c(OC)c(=O)c2c1O	–	> 100	–	> 100	–	33.4	–	–	–	> 100	–	> 100	–	> 100	–	10.3	–	33	–	> 100
COc1ccc2sc3cccc(NCCN(C)C)c3c(=O)c2c1	5.4	18.6	1.2	9.38	2.79	10.1	2.67	9.76	2.78	9.69	1.75	3.42	2.57	7.15	3.81	14.4	2.76	9.78	2.26	5.3
Nc1nc2c(ncn2C2CCC(CO)O2)c(=O)n1C(=O)c1ccccc1 (stereo not drawn)	–	> 100	–	> 100	–	> 100	–	> 100	–	> 100	–	> 100	–	> 100	–	> 100	–	> 100	–	> 100
CCN(CC)CCNc1ccc(C)c2sc3cc(Cl)ccc3c(=O)c12	2.36	6.95	1.89	4.79	2.04	3.77	1.57	3.05	1.65	3.15	1.62	3.35	1.76	3.28	1.68	3.37	1.65	4.02	1.91	3.52
O=C1C(Cl)=C(Sc2nnc3c4ccccc4c4ccccc4c3n2)C(=O)c2ccccc21	–	32.2	–	37.2	–	57.7	–	32	–	33.3	–	38.9	–	71.4	–	90.6	–	19.2	–	39.6
Nc1cc(F)ccc1CC(=O)O	–	> 100	–	> 100	–	> 100	–	> 100	–	> 100	–	> 100	–	> 100	–	> 100	–	> 100	–	> 100
Cc1ccc(NC(=O)c2ccc(CN3CCN(C)CC3)cc2)cc1Nc1nccc(-c2cccnc2)n1	16.6	34.9	20.6	39.2	16.1	32.7	14.2	33.3	13.2	42.6	16.7	40.5	25.9	89.3	25.6	71	16.9	49.6	15.1	29.6
C[C@]12CCc3nc(Nc4cccc(O)c4)sc3C1=CC[C@@H]1[C@@H]2CC[C@]2(C)/C(=N\NC(N)=S)CC[C@@H]12	1.15	3.97	3.01	15.5	1.7	3.69	0.574	2.19	1.34	2.69	1.91	3.61	2.95	11.4	1.66	4.45	1.83	4.41	–	–
O=C1c2[nH]cc(CNC3CN4CCC3CC4)c2C(=O)c2c1c(O)c1ccccc1c2O (stereo not drawn)	21.6	47.1	–	1.72	–	–	5.28	84.3	0.37	2.65	2.05	9.56	6.31	47.4	12.6	68.4	19	39.2	13	34.2
CCOC(=O)C1=C(C)N=c2s/c(=C\c3ccccc3O)c(=O)n2C1c1ccc(OC)c2ccccc12 (stereo not drawn)	14.6	> 100	–	–	13.4	44.3	4.3	17.3	3.26	12.1	30.8	> 100	3.88	16.7	6.23	25.5	5.28	22.8	15.5	76.4
